Measurements: patent US20240317756A1, “INHIBITORS OF BRUTON'S TYROSINE KINASE” (Pharmacyclics LLC, priority 2006, published 2024)

Tests used:
ITK = ITK (Homo sapiens (Human), UniProt Q08881); test: in vitro HotSpot kinase assay, ITK; type: biochemical; conditions: Table 2, 1 uM ATP, one hour incubation with inhibitor
lymphoma cell line DOHH2 = test: DOHH2 cell proliferation assay (Alamar Blue); type: cell-based
Procedure: After 72 hours, cell number was measured using Alamar Blue using manufacturer's protocol. A dilution series of untreated cells was run in parallel to verify that the Alamar Blue assay reliably reflected cell number and that growth conditions were not limiting. […] GI50 values were confirmed in two or more separate experiments for each cell line.
Analogs are generated that are Btk inhibitors and that are cytotoxic to the lymphoma cell line DOHH2. For the DOHH2 cell proliferation assay, cells were seeded in 96-well plates in standard growth media (RPMI+10% fetal calf serum) and compounds were added in a 9-point dilution series ranging from 10 uM to 0.04 uM with DMSO at 0.1% final concentration in all wells. After 72 hours, cell number was measured using Alamar Blue using manufacturer's protocol. A dilution series of untreated cells was run in parallel to verify that the Alamar Blue assay reliably reflected cell number and that growth conditions were not limiting.

EGFR = EGFR (Homo sapiens (Human), UniProt P00533); test: in vitro HotSpot kinase assay, EGFR; type: biochemical; conditions: Table 2, 1 uM ATP, one hour incubation with inhibitor
JAK3 = JAK3 (Homo sapiens (Human), UniProt P52333); test: in vitro HotSpot kinase assay, JAK3; type: biochemical; conditions: Table 2, 1 uM ATP, one hour incubation with inhibitor
LCK = LCK (Homo sapiens (Human), UniProt P06239); test: in vitro HotSpot kinase assay, LCK; type: biochemical; conditions: Table 2, 1 uM ATP, one hour incubation with inhibitor
BTK = BTK (Homo sapiens (Human), UniProt Q06187); test: in vitro HotSpot kinase assay, BTK; type: biochemical; conditions: Table 2, 1 uM ATP, one hour incubation with inhibitor
[1] = glutathione binding assay; conditions: 5 mM glutathione, 10 μM Btk inhibitor, room temperature, HPLC
Procedure: A calculated value (e.g (1/Btk IC50)/Glutathione conjugation rate) as shown in the Table 2) is used to compare compounds for their ratio between potency at inhibiting their target and their non-specific binding to other SH groups, such as those in glutathione. […] Calculated ratios such as these are used to quantitatively compare different compounds and select compounds for further study.
For the glutathione binding assays, 5 mM glutathione, 10 μM Btk inhibitor in DMSO (10 μL) and 6 equivalents of N′N′ Diisopropyl ethyl amine were combined in 1 mL potassium phosphate buffer. The mixture was incubated for 0, 15, 60 minutes at room temperature and the reaction was stopped with 10 equivalents of formic acid. 50 μL of each reaction mixture was injected on HPLC (Mobil Phase A: 0.2% formic acid in water, Mobile Phase B: 0.2% formic acid in acetonitrile, HPLC Column: Metasil Basic 3μ, 150×4.6 mm, 10% B, Gradient: 10% to 90% B, Detection: UV/Vis […]). Rate of reaction was reported as nmole GSH conjugate conversion per minute from the normalized ratio for area under the curve from HPLC chromatograms for both GSH conjugate and the parent.

[2] = plasma concentrations after oral dosing of rats; type: in vivo; conditions: single oral dose 8 mg/kg each in combination
Procedure: Blood samples were collected at 0.0833 (5 minutes), 0.333 (20 minutes), 1, 3, 6, 9, and 24 hours post-dosing from orally dosed rats.
Male jugular vein cannulated rats were administered a single dose of all test compounds at 8 mg/kg each, in combination by oral gavage. Dose volumes were adjusted based on body weight data collected immediately prior to dosing. Blood samples were collected at 0.0833 (5 minutes), 0.333 (20 minutes), 1, 3, 6, 9, and 24 hours post-dosing from orally dosed rats. The samples were collected into plasma separator Microtainer tubes with anticoagulant (lithium heparin). Plasma samples were prepared by centrifugation (5 min at 5000×g), and at least 100 μL were transferred to storage tubes and stored frozen at −80° C. Plasma samples were thawed and 75 uL aliquots were transferred to centrifuge tubes to which 10 μL aliquots of internal standard solution (1 μg/mL) were added. The samples were not diluted with blank plasma prior to further processing. Soluble proteins were precipitated by the addition of 200 μL of acetonitrile, followed by centrifugation (20 min at 16,000×g). The samples were evaporated to dryness and reconstituted in 200 μL of water containing 0.2% formic acid and 10% methanol. All samples were loaded onto an autosampler maintained at 6° C. and evaluated for concentrations of test compounds using LC-MS/MS.

LCK, sequence (P06239 whole entry, species assumed): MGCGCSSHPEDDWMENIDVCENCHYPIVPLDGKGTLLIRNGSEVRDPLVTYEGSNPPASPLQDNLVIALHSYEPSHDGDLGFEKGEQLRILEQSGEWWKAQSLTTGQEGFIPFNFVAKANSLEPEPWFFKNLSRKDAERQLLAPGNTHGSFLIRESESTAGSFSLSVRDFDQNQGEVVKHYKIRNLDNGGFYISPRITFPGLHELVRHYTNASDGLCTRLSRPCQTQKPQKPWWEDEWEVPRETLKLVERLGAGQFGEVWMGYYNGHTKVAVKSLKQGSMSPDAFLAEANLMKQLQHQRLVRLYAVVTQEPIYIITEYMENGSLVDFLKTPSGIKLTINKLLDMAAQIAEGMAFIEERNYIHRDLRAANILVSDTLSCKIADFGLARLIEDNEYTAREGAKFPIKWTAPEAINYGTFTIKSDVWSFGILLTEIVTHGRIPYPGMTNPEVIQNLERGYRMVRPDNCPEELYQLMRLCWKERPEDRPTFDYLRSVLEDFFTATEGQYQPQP
BTK, sequence (Q06187 whole entry): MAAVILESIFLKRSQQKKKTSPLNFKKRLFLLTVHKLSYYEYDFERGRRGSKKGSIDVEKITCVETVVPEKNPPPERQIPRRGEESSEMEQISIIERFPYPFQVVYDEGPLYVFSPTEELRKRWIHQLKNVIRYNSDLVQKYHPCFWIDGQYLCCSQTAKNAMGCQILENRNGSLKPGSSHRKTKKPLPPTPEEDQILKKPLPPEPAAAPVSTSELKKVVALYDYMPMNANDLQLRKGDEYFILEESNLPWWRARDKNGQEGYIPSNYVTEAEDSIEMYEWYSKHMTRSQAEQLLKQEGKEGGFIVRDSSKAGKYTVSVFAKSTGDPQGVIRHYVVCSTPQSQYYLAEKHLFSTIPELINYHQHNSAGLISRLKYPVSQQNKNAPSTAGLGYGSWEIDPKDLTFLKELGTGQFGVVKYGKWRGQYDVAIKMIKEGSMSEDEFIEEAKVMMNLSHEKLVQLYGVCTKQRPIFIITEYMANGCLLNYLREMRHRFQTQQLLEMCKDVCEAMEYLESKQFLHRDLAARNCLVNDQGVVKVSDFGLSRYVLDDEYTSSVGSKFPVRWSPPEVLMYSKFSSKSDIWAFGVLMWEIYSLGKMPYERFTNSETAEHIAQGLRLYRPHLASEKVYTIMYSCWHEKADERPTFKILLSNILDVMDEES
ITK, sequence (Q08881 whole entry, species assumed): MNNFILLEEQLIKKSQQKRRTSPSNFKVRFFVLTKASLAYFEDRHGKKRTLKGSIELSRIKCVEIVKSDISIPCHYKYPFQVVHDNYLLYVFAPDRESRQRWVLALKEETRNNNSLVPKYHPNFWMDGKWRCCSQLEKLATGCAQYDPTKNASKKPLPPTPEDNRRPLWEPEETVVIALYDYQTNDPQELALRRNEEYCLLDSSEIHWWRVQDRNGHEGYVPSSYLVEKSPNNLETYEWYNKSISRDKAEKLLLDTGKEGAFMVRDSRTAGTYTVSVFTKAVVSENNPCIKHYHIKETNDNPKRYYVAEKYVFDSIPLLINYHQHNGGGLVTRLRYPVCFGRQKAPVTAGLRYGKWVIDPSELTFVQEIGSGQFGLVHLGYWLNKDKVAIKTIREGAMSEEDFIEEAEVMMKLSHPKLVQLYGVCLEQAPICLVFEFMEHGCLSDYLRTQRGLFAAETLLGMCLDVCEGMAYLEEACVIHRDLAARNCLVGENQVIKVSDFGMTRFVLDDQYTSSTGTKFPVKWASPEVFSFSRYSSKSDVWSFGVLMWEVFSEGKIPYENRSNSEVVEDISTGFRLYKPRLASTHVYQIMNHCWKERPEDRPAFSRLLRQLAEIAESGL
JAK3, sequence (P52333 whole entry, species assumed): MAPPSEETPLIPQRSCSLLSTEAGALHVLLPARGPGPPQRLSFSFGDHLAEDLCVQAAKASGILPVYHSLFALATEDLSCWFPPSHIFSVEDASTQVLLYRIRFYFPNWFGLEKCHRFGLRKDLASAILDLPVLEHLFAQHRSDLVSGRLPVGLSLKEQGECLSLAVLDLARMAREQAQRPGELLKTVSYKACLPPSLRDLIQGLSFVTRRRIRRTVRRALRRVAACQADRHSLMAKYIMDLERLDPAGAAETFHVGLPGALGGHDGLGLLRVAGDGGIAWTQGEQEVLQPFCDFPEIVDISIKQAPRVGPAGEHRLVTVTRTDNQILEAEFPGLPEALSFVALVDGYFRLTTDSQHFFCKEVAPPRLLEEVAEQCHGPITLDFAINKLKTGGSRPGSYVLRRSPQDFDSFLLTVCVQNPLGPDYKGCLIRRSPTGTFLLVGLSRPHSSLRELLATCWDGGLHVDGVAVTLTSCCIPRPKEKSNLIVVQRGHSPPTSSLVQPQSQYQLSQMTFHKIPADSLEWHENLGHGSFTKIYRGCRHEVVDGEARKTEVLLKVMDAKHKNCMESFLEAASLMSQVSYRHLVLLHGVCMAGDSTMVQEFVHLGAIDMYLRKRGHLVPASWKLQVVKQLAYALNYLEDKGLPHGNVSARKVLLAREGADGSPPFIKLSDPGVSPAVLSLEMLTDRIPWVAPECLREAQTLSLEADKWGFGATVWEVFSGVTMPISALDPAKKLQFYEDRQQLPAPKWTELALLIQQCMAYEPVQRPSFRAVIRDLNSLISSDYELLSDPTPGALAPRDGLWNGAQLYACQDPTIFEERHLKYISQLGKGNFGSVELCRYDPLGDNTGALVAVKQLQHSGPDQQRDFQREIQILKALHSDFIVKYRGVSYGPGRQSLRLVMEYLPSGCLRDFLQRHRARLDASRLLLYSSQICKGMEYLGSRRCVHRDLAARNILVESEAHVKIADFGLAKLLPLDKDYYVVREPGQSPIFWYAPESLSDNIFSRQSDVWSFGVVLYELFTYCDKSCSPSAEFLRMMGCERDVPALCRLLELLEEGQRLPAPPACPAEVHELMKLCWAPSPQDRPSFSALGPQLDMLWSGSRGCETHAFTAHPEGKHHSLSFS

| Compound | IC50 (ITK) [µM] | GI50 (lymphoma cell line DOHH2; 72 hours) [µM] | IC50 (EGFR) [µM] | IC50 (JAK3) [µM] | IC50 (LCK) [µM] | IC50 (BTK) [µM] | Glutathione Conj Rate [1] [nmol/min] | GI50 (lymphoma cell line DOHH2; Homo sapiens, DOHH-2, 72 hours) [µM] | in vivo half-life [2] |
| --- | --- | --- | --- | --- | --- | --- | --- | --- | --- |
| Nc1ncnc2c1c(-c1ccc(Oc3ccccc3)cc1)nn2[C@H]1CC[C@@H](NC(=O)/C=C/CN2CCOCC2)CC1 [Compound 25, (E)-N-((1s,4s)-4-(4-amino-3-(4-phenoxyphenyl)-1H-pyrazolo[3,4-d]pyrimidin-1-yl)cyclohexyl)-4-morpholinobut-2-enamide] | > 10 | 0.05 | 0.273 | > 10 | 0.0258 | 0.00348 | – | – | – |
| C=CC(=O)N1CCC(n2nc(-c3ccc(Oc4ccccc4)cc3)c3c(N)ncnc32)CC1 [Compound 6] | – | – | – | – | – | 0.0031 | 0.39 | – | – |
| CC#CC(=O)N1CCC[C@@H]1Cn1nc(-c2ccc(Oc3ccccc3)cc2)c2c(N)ncnc21 [Compound 15, 1((R)-2-((4-amino-3-(4-phenoxyphenyl)-1H-pyrazolo[3,4-d]pyrimidin-1-yl)methyl)pyrrolidin-1-yl)but-2-yn-1-one] | 21.1 | – | 0.289 | > 10 | 0.0059 | 0.00416 | – | 0.59 | – |
| CN(C)C/C=C/C(=O)N1CCC[C@@H]1Cn1nc(-c2ccc(Oc3ccccc3)cc2)c2c(N)ncnc21 [Compound 11, (E)-1-((R)-2-((4-amino-3-(4-phenoxyphenyl)-1H-pyrazolo[3,4-d]pyrimidin-1-yl)methyl)pyrolidin-1-yl)-4-(dimethylamino)but-2-en-1-one] | 6.89 | – | 0.0189 | > 10 | 0.00243 | 0.00092 | 0.004525 | > 10 | – |
| Nc1ncnc2c1c(-c1ccc(Oc3ccccc3)cc1)nn2C1CCN(C(=O)/C=C/CN2CCOCC2)CC1 [Compound 20] | 7.99 | 0.39 | 0.304 | > 10 | 0.0986 | 0.00407 | – | – | – |
| C=CC(=O)N1CCC[C@H]1Cn1nc(-c2ccc(Oc3ccccc3)cc2)c2c(N)ncnc21 [Compound 14, 1-((S)-2-((4-amino-3-(4-phenoxyphenyl)-1H-pyrazolo[3,4-d]pyrimidin-1-yl)methyl)pyrrolidin-1-yl)prop-2-en-1-one] | 0.592 | – | 0.0023 | 1.46 | 0.00924 | 0.00039 | – | 0.37 | – |
| C=CC(=O)N(C)CCn1nc(-c2ccc(Oc3ccccc3)cc2)c2c(N)ncnc21 [Compound 19, N-(2-(4-amino-3-(4-phenoxyphenyl)-1H-pyrazolo[3,4-d]pyrimidin-1-yl)ethyl)-N-methylacrylamide] | 0.535 | – | – | 6 | 0.00662 | 0.00158 | – | 0.69 | – |
| C=CC(=O)N[C@H]1CC[C@H](n2nc(-c3ccc(Oc4ccccc4)cc3)c3c(N)ncnc32)CC1 [Compound 10, N-((1r,4r)-4-(4-amino-3-(4-phenoxyphenyl)-1H-pyrazolo[3,4-d]pyrimidin-1-yl)cyclohexyl)acrylamide] | 1.95 | – | – | > 10 | – | – | – | < 0.03 | – |
| CC#CC(=O)N[C@H]1CC[C@@H](n2nc(-c3ccc(Oc4ccccc4)cc3)c3c(N)ncnc32)CC1 [Compound 22, N-((1s,4s)-4-(4-amino-3-(4-phenoxyphenyl)-1H-pyrazolo[3,4-d]pyrimidin-1-yl)cyclohexyl)but-2-ynamide] | 3.69 | < 0.04 | 0.156 | > 10 | 0.0221 | 0.00157 | 0.014 | – | – |
| Nc1ncnc2c1c(-c1ccc(Oc3ccccc3)cc1)nn2C1CCCN(C(=O)/C=C/CN2CCOCC2)C1 (stereo not drawn) [Compound 5, (E)-1-(3-(4-amino-3-(4-phenoxyphenyl)-1H-pyrazolo[3,4-d]pyrimidin-1-yl)piperidin-1-yl)-4-morpholinobut-2-en-1-one] | – | – | 0.326 | – | – | 0.0056 | 0.004 | – | – |
| C=CC(=O)NCCn1nc(-c2ccc(Oc3ccccc3)cc2)c2c(N)ncnc21 [Compound 23, N-(2-(4-amino-3-(4-phenoxyphenyl)-1H-pyrazolo[3,4-d]pyrimidin-1-yl)ethyl)acrylamide] | 0.83 | – | 0.0705 | 3.31 | 0.208 | 0.00032 | – | 0.11 | – |
| CN(C)C/C=C/C(=O)N[C@H]1CC[C@H](n2nc(-c3ccc(Oc4ccccc4)cc3)c3c(N)ncnc32)CC1 [Compound 18] | 2.54 | < 0.03 | 0.0225 | > 10 | 0.00076 | 0.00138 | – | – | – |
| CN(C)C/C=C/C(=O)N[C@H]1CC[C@@H](n2nc(-c3ccc(Oc4ccccc4)cc3)c3c(N)ncnc32)CC1 [Compound 8, (E)-N-((1s,4s)-4-(4-amino-3-(4-phenoxyphenyl)-1H-pyrazolo[3,4-d]pyrimidin-1-yl)cyclohexyl)-4-(dimethylamino)but-2-enamide] | – | – | 0.0834 | – | – | 0.0014 | – | – | significantly longer in vivo half-life |
| (E)-4-(N-(2-hydroxyethyl)-N-methylamino)-1-(3-(4-phenoxyphenyl)-1H-pyrazolo[3,4-d]pyrimidin-1-yl)piperidin-1-yl)but-2-en-1-one [Compound 3] | – | – | 0.0745 | – | – | 0.021 | – | – | – |
| Nc1ncnc2c1c(-c1ccc(Oc3ccccc3)cc1)nn2[C@@H]1CCCN(C(=O)/C=C/CN2CCOCC2)C1 [Compound 24, (E)-1-((R)-3-(4-amino-3-(4-phenoxyphenyl)-1H-pyrazolo[3,4-d]pyrimidin-1-yl)piperidin-1-yl)-4-morpholinobut-2-en-1-one] | 0.476 | – | 0.384 | 9.08 | 0.235 | 0.00089 | – | 0.44 | – |
| Nc1ncnc2c1c(-c1ccc(Oc3ccccc3)cc1)nn2C[C@@H]1CCCN1C(=O)/C=C/CN1CCOCC1 [Compound 21] | > 10 | 1.53 | 6.24 | > 10 | 1.35 | 0.00415 | – | – | – |
| CC#CC(=O)N1CCC[C@H]1Cn1nc(-c2ccc(Oc3ccccc3)cc2)c2c(N)ncnc21 [Compound 16, 1-((S)-2-((4-amino-3-(4-phenoxyphenyl)-1H-pyrazolo[3,4-d]pyrimidin-1-yl)methyl)pyrrolidin-1-yl)but-2-yn-1-one] | > 10 | – | 2.81 | > 10 | 0.00382 | 0.00314 | – | 0.21 | – |
| C=CC(=O)N1CCC[C@@H]1Cn1nc(-c2ccc(Oc3ccccc3)cc2)c2c(N)ncnc21 [Compound 13, 1-((R)-2-((4-amino-3-(4-phenoxyphenyl)-1H-pyrazolo[3,4-d]pyrimidin-1-yl)methyl)pyrrolidin-1-yl)prop-2-en-1-one] | 3.01 | – | 0.0187 | 13 | 0.00156 | 0.00067 | – | 0.24 | – |
| CC#CC(=O)N1CCC[C@@H](n2nc(-c3ccc(Oc4ccccc4)cc3)c3c(N)ncnc32)C1 [Compound 17, 1-((R)-3-(4-amino-3-(4-phenoxyphenyl)-1H-pyrazolo[3,4-d]pyrimidin-1-yl)piperidin-1-yl)but-2-yn-1-one] | 2.33 | – | 0.435 | > 10 | 0.00207 | 0.002 | 0.0243 | 0.21 | – |
